From ChEMBL document CHEMBL1201862, “PubChem BioAssay data set” (2004)
The source made the active and inactive calls. For most assays here, no stated cut-off is given here; in the data, active = IC50 of 5 µM or less and inactive = more.

Legend:
Estrogen receptor = biological target: T1, Estrogen receptor (Homo sapiens, UniProt P03372);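 further: potency for inhibiting coactivator peptide recruitment to the receptor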
T1 sequence (P03372 whole entry): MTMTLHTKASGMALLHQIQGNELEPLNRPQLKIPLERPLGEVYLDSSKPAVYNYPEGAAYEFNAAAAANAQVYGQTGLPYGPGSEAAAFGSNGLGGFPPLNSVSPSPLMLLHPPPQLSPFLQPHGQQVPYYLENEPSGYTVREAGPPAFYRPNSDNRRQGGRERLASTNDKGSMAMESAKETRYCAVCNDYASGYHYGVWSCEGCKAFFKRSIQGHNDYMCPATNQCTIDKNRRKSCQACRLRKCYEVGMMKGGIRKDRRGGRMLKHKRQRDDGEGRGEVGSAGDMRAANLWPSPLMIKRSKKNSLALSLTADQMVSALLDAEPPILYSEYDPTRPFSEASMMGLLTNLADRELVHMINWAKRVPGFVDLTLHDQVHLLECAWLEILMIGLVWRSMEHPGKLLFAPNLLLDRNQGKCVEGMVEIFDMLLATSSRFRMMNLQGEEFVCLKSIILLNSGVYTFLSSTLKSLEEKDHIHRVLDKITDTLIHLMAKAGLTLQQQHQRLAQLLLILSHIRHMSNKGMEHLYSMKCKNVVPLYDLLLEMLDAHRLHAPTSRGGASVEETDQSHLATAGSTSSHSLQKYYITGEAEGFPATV

Prothrombin = Prothrombin (Homo sapiens, UniProt P00734); assay: Thrombin 1536 HTS Dose Response Confirmation. [Related pubchem assays: 1046 (Thrombin 1536 HTS; hits were confirmed in this assay)]; assay type: functional
[1] = HCT116 cell viability decrease, GSK3B pretreatment – CellTiter-Glo, IC50, dose response (AID 1117339); assay type: functional; settings: HCT-116
[2] = cytotoxicity toward HCT116 cells – cell-based, CellTiter-Glo luminescence, IC50, dose response (AID 1117332); assay type: functional; settings: HCT-116
[3] = SNU-C1 cell viability reduction, dose response, CellTiter-Glo luminescence (AID 1117323); assay type: functional, cell-based
[4] = CellTiter-Glo luminescent dose response of DLD-1 viability loss (AID 1117352); assay type: functional
[5] = cytotoxicity toward Colo320 cells – cell-based, CellTiter-Glo luminescence, IC50, dose response (AID 1117334); assay type: functional; settings: COLO 320
[6] = cytotoxicity toward HT-29 cells – cell-based, CellTiter-Glo luminescence, IC50, dose response (AID 1117330); assay type: functional
[7] = RKO cell viability reduction, dose response, CellTiter-Glo luminescence (AID 1117322); assay type: functional
[8] = Concentration-dependent survival of SW480 colon cancer line, luminescence detection with CellTiter-Glo, half-maximal inhibitory concentration (AID 1117338); assay type: functional
Aminopeptidase N = biological target: T2, Aminopeptidase N (Plasmodium falciparum FcB1/Columbia, UniProt O96935); assay: P. falciparum M1AAP inhibitors, biochemical, fluorogenic H-Leu-NHMec substrate, 1536-well (AID 1445); design: species or system Plasmodium falciparum 3D7, 3D7
T2 sequence (O96935 whole entry): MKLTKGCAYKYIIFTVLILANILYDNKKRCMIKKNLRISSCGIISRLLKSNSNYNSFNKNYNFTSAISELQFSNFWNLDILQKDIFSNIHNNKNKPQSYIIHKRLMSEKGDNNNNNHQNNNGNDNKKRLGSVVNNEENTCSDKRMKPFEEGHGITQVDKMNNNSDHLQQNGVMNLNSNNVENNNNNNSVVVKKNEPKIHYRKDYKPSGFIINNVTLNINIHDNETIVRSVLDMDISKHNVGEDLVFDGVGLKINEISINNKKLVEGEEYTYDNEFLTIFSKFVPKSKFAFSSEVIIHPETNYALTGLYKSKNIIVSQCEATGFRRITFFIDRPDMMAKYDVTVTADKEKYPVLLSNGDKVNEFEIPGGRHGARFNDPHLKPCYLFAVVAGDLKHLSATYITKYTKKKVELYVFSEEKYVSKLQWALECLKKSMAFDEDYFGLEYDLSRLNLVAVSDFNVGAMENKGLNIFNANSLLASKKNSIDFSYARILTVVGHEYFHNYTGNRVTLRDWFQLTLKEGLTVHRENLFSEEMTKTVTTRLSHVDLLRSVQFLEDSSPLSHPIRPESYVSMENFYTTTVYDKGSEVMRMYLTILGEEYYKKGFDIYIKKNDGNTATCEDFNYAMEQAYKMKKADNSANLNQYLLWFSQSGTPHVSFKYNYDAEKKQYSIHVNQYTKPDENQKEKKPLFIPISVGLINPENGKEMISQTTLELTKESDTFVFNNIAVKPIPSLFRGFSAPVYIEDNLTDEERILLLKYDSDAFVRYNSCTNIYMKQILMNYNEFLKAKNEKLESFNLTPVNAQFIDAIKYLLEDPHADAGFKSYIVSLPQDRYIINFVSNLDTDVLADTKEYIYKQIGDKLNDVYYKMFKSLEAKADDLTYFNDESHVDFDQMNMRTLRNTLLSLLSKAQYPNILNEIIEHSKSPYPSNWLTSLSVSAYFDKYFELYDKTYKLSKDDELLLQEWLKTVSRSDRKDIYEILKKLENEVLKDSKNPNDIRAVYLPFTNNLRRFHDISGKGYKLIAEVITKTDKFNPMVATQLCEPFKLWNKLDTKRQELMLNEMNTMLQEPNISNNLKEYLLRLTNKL

[9] = biological target: T3, Ubiquitin-conjugating enzyme E2 N (Homo sapiens, UniProt P61088); assay type: functional;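 further: Dose-response confirmation in a TR-FRET assay detecting UBC13-driven polyubiquitin chain formation, inhibition measured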
T3 sequence (P61088 whole entry): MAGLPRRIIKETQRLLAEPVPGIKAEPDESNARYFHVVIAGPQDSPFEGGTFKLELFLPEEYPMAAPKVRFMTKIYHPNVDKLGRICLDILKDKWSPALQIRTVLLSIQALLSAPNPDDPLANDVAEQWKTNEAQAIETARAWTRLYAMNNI

[10] = biological target: T4, DNA repair protein RAD52 homolog (Homo sapiens, UniProt P43351); assay type: functional, biochemical
T4 sequence (P43351 whole entry): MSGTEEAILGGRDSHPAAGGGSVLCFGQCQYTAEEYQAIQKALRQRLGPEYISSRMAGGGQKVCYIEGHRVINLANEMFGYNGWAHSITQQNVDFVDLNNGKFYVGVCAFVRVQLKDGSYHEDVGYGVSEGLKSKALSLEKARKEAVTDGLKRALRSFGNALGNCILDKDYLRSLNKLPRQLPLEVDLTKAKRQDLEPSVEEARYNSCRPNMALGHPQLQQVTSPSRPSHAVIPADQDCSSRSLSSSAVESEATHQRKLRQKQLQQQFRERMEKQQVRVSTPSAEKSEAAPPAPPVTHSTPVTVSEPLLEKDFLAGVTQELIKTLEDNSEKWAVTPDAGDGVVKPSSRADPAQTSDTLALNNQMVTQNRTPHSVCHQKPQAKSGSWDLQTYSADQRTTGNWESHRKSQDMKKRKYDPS

| Structure (SMILES) | IC50 [1] | IC50 [2] | IC50 [3] | IC50 [4] | IC50 [5] | IC50 [6] | IC50 [7] | IC50 [8] | further results |
| --- | --- | --- | --- | --- | --- | --- | --- | --- | --- |
| Cc1cccc(NC2=NC(=O)/C(=C3/C(=O)N(C)c4ccccc43)S2)c1C | – | – | – | – | – | – | – | – | IC50 (Estrogen receptor): 32.9 µM (not active) |
| Cc1nc2ccccc2c(=O)n1NC(=O)c1cc(Br)ccc1Cl | – | – | – | – | – | – | – | – | IC50 (Prothrombin): > 50 µM (not active) |
| CC(=O)NC(=O)c1ccccc1O [SALACETAMIDE] | > 20 µM (inactive) | > 20 µM (inactive) | > 20 µM (inactive) | > 20 µM (inactive) | > 20 µM (inactive) | > 20 µM (inactive) | > 20 µM (inactive) | > 20 µM (inactive) | – |
| O=c1[nH]c2ccc(Br)cc2c(-c2ccccc2)c1CN1CCOCC1 | – | – | – | – | – | – | – | – | IC50 (Aminopeptidase N): 54.2 µM (active) |
| CN1CCN(C2Cc3ccccc3Sc3ccc(Cl)cc32)CC1 (stereo not given) | 8.4 µM (inactive) | 9.17 µM (inactive) | 7.87 µM (inactive) | > 20 µM (inactive) | > 6.67 µM (inactive) | 8 µM (inactive) | > 20 µM (inactive) | 6.31 µM (inactive) | IC50 [9]: > 20 µM (inactive); AC50 [10]: 22.5 µM (active) |
| Cc1ccc(-c2nc(N)n(C(=O)Cc3ccccc3)n2)cc1 | – | – | – | – | – | – | – | – | IC50 (Prothrombin): 1.82 µM (active) |
| CN(C)[C@@H](CCOc1cccc2ccccc12)c1ccccc1 [DAPOXETINE] | 9.86 µM (inactive) | > 20 µM (inactive) | 12.8 µM (inactive) | > 20 µM (inactive) | > 20 µM (inactive) | > 20 µM (inactive) | 8.11 µM (inactive) | > 20 µM (inactive) | – |
